The source of these data is patent US9670227B2, “Thienopyrimidine derivatives, a process for their preparation and pharmaceutical compositions containing them” (LES LABORATOIRES SERVIER, priority 2013, dated 2017).

The target in the first assay is Mcl-1 protein (UniProtKB primary accession number: Q07820) (Homo sapiens, UniProt Q07820). Description: Inhibition of Mcl-1 by fluorescence polarisation, Method 1. The assay is classed as binding. The note with it: fluorescence polarisation test; Method 1, or Method 2 where the value is underlined (underlining not visible); read-out: IC50 (M) Mcl-1 FP. As for the experimental part: The relative binding potency of each compound was determined via Fluorescence Polarisation (FP).
Chain of Mcl-1 protein (Q07820 whole entry): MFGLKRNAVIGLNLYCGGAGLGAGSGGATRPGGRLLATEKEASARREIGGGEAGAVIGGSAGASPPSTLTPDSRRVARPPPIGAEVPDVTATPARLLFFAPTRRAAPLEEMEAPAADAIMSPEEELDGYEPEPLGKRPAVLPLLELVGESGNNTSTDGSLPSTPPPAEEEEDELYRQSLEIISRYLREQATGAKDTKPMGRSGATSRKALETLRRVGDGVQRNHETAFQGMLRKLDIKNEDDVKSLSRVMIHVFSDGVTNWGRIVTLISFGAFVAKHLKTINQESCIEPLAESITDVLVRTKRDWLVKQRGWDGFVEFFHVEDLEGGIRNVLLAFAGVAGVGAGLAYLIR
An 11 point serial dilution of each compound was prepared in DMSO and 2 μl transferred into flat bottomed, low binding, 384-well plate (final DMSO concentration 5%). 38 μl of buffer (10 mM 4-(2-hydroxyethyl)-1-piperazineethanesulfonic acid [HEPES], 150 mM NaCl, 0.05% Tween 20, pH 7.4), containing the Fluorescein labelled ligand (final concentration 1 nM) and Mcl-1 protein (final concentration 5 nM) was then added.
In general terms: In fluorescence polarisation assays a small probe gives low polarisation when free and higher when bound to something large.
As to `Cc1c(-c2c(-c3ccc(F)cc3)sc3ncnc(OC(Cc4ccccc4OCc4ccnn4C(C)(C)C)C(=O)OCC(=O)N(C)C)c23)ccc(OCCN(C)C)c1Cl` [Example 817, 2-(dimethylamino)-2-oxoethyl (2R)-3-{2-[(1-tert-butyl-1H-pyrazol-5-yl)methoxy]phenyl}-2-{[(5Sa)-5-{3-chloro-4-[2-(dimethylamino)ethoxy]-2-methylphenyl}-6-(4-fluorophenyl)thieno[2,3-d]pyrimidin-4-yl]oxy}propanoate], the IC50 (as a rule, the point on the concentration scale where inhibition reaches its midpoint) turned out to be 4.75e-07 M. With `COc1ccccc1CC(Oc1ncnc2sc(-c3ccc(F)cc3)c(-c3ccc(OC)c(Cl)c3C)c12)C(=O)O` [Example 840, (2R)-2-{[(5Sa)-5-(3-chloro-4-methoxy-2-methylphenyl)-6-(4-fluorophenyl)thieno[2,3-d]pyrimidin-4-yl]oxy}-3-(2-methoxyphenyl)propanoic acid], the IC50 amounted to 1.28e-07 M.

The assay is the same for the next values; noted with them: fluorescence polarisation test; Method 2 values are underlined in the patent (underlining not visible here); read-out: IC50 (M) Mcl-1 FP.
For `Cc1c(-c2c(-c3ccc(F)cc3)sc3ncnc(OC(Cc4ccccc4OCc4ccnc(-c5ccco5)n4)C(=O)O)c23)ccc(OCCN2CCN(C)CC2)c1Cl` [Example 117, (2R)-2-{[(5Sa)-5-{3-chloro-2-methyl-4-[2-(4-methylpiperazin-1-yl)ethoxy]phenyl}-6-(4-fluorophenyl)thieno[2,3-d]pyrimidin-4-yl]oxy}-3-(2-{[2-(furan-2-yl)pyrimidin-4-yl]methoxy}phenyl)propanoic acid], the IC50 is 6.1e-09 M.

For the compound `Cc1c(-c2c(-c3ccc(F)o3)sc3ncnc(OC(Cc4ccccc4OCc4ccnn4C)C(=O)O)c23)ccc(OCCN2CCN(C)CC2)c1Cl` [Example 180, (2R)-2-{[(5Sa)-5-{3-chloro-2-methyl-4-[2-(4-methylpiperazin-1-yl)ethoxy]phenyl}-6-(5-fluorofuran-2-yl)thieno[2,3-d]pyrimidin-4-yl]oxy}-3-{2-[(1-methyl-1H-pyrazol-5-yl)methoxy]phenyl}propanoic acid], the IC50 stood at 8.9e-09 M. Turning to `CCn1nccc1COc1ccccc1CC(Oc1ncnc2sc(-c3ccc(F)o3)c(-c3ccc(OCCN4CCN(C)CC4)c(Cl)c3C)c12)C(=O)O` [Example 184, (2R)-2-{[(5Sa)-5-{3-chloro-2-methyl-4-[2-(4-methylpiperazin-1-yl)ethoxy]phenyl}-6-(5-fluorofuran-2-yl)thieno[2,3-d]pyrimidin-4-yl]oxy}-3-{2-[(1-ethyl-1H-pyrazol-5-yl)methoxy]phenyl}propanoic acid], the IC50 came out at 6e-09 M. Still for that read-out and setting: under `Cc1c(-c2c(-c3ccc(F)o3)sc3ncnc(OC(Cc4ccccc4OCc4ccccn4)C(=O)O)c23)ccc(OCCN2CCN(C)CC2)c1Cl` (single isomer, unassigned) [Example 166] stands 6e-09 M.

Consider `Cc1ccccc1-c1nccc(COc2ccccc2CC(Oc2ncnc3sc(-c4ccc(F)cc4)c(-c4ccc(OCCN5CCN(C)CC5)c(Cl)c4C)c23)C(=O)O)n1` [Example 113, (2R)-2-{[(5Sa)-5-{3-chloro-2-methyl-4-[2-(4-methylpiperazin-1-yl)ethoxy]phenyl}-6-(4-fluorophenyl)thieno[2,3-d]pyrimidin-4-yl]oxy}-3-(2-{[2-(2-methylphenyl)pyrimidin-4-yl]methoxy}phenyl)propanoic acid], for which the IC50 was 2.6e-09 M. The same measure, in the same setting: under `COc1ccccc1CC(Oc1ncnc2sc(-c3ccco3)c(-c3ccc(OCCN4CCN(C)C(=O)C4)c(Cl)c3C)c12)C(=O)O` [Example 321, (2R)-2-{[(5Sa)-5-{3-chloro-2-methyl-4-[2-(4-methyl-3-oxopiperazin-1-yl)ethoxy]phenyl}-6-(furan-2-yl)thieno[2,3-d]pyrimidin-4-yl]oxy}-3-(2-methoxyphenyl)propanoic acid] stands 6e-09 M.

The same assay, now with this note: fluorescence polarisation; Method 1, or Method 2; read-out: IC50 (M) Mcl-1 FP.
As for `COc1ccc(-c2c(-c3ccc(F)cc3)sc3ncnc(OC(Cc4ccccc4OCc4ccnc(N(C)C)n4)C(=O)O)c23)c(C)c1Cl` [Example 660, (2R)-2-{[(5Sa)-5-(3-chloro-4-methoxy-2-methylphenyl)-6-(4-fluorophenyl)thieno[2,3-d]pyrimidin-4-yl]oxy}-3-(2-{[2-(dimethylamino)pyrimidin-4-yl]methoxy}phenyl)propanoic acid], the IC50 came out at 5.1e-08 M. Same read-out and setting: under `COC(=N)c1ccc(-c2sc3ncnc(OC(Cc4ccccc4OC)C(=O)O)c3c2-c2ccc(OCCN3CCN(C)CC3)c(Cl)c2C)o1` [Example 580, (2R)-2-[((5Sa)-5-{3-chloro-2-methyl-4-[2-(4-methylpiperazin-1-yl)ethoxy]phenyl}-6-[5-(methoxycarbonoimidoyl)furan-2-yl]thieno[2,3-d]pyrimidin-4-yl)oxy]-3-(2-methoxyphenyl)propanoic acid] stands 3.7e-08 M; under `CC(=O)c1sc2ncnc(OC(Cc3ccccc3)C(=O)O)c2c1-c1ccc(OCCN2CCN(C)CC2)c(Cl)c1C` [Example 522, (2R)-2-[(6-acetyl-(5Sa)-5-{3-chloro-2-methyl-4-[2-(4-methylpiperazin-1-yl)ethoxy]phenyl}thieno[2,3-d]pyrimidin-4-yl)oxy]-3-phenylpropanoic acid], 7.5e-08 M. The same measure, in the same setting: under `Cc1c(-c2c(-c3ccco3)sc3ncnc(OC(Cc4ccccc4)C(=O)O)c23)ccc(OCCN2CCN(C)CC2)c1Cl` [Example 504, (2R)-2-{[(5Sa)-5-{3-chloro-2-methyl-4-[2-(4-methylpiperazin-1-yl)ethoxy]phenyl}-6-(furan-2-yl)thieno[2,3-d]pyrimidin-4-yl]oxy}-3-phenylpropanoic acid] stands 2.9e-08 M; under `CC#Cc1sc2ncnc(OC(Cc3ccccc3OC)C(=O)O)c2c1-c1ccc(O)c(Cl)c1C` [Example 480, (2R)-2-{[(5Sa)-5-(3-chloro-4-hydroxy-2-methylphenyl)-6-(prop-1-yn-1-yl)thieno[2,3-d]pyrimidin-4-yl]oxy}-3-(2-methoxyphenyl)propanoic acid], 2.8e-08 M. The same measure, in the same setting: to `COc1ccccc1CC(Oc1ncnc2sc(-c3ccc(F)c(F)c3F)c(-c3ccc(OCCN4CCN(C)CC4)c(Cl)c3C)c12)C(=O)O` [Example 537, (2R)-2-{[(5Sa)-5-{3-chloro-2-methyl-4-[2-(4-methylpiperazin-1-yl)ethoxy]phenyl}-6-(2,3,4-trifluorophenyl)thieno[2,3-d]pyrimidin-4-yl]oxy}-3-(2-methoxyphenyl)propanoic acid] belongs 4.3e-08 M; to `COc1ccccc1-c1nccc(COc2ccccc2CC(Oc2ncnc3sc(-c4ccc(Oc5ccccc5)cc4)c(-c4ccc(OCCN5CCN(C)CC5)c(Cl)c4C)c23)C(=O)O)n1` (single isomer, unassigned) [Example 758], 3.53e-07 M; to `Cc1sccc1-c1sc2ncnc(OC(Cc3ccccc3)C(=O)O)c2c1-c1ccc(OCCN2CCN(C)CC2)c(Cl)c1C` [Example 511, (2R)-2-{[(5Sa)-5-{3-chloro-2-methyl-4-[2-(4-methylpiperazin-1-yl)ethoxy]phenyl}-6-(2-methylthiophen-3-yl)thieno[2,3-d]pyrimidin-4-yl]oxy}-3-phenylpropanoic acid], 4.8e-07 M.

Still in this assay, the particulars now being: partial inhibitors; @ 10 uM test compound.
With `COc1ccccc1C[C@@H](Oc1ncnc2sc(-c3ccc(F)cc3)c(-c3ccc(OCCN4CCN(C)CC4)c(Cl)c3C)c12)C(=O)Oc1ccc2c(c1)CCC2` [Example 640, 2,3-dihydro-1H-inden-5-yl (2R)-2-{[(5Sa)-5-{3-chloro-2-methyl-4-[2-(4-methylpiperazin-1-yl)ethoxy]phenyl}-6-(4-fluorophenyl)thieno[2,3-d]pyrimidin-4-yl]oxy}-3-(2-methoxyphenyl)propanoate], the “percentage fluorescence polarisation inhibition, Mcl-1 FP” value was 42.4% @ 10 uM. Same read-out and setting: to `CCOC(=O)[C@@H](Cc1ccccc1OCc1cnccn1)Oc1ncnc2sc(-c3ccc(F)cc3)c(-c3ccc(OCCN4CCOCC4)c(Cl)c3C)c12` [Example 632, ethyl (2R)-2-{[(5Sa)-5-{3-chloro-2-methyl-4-[2-(morpholin-4-yl)ethoxy]phenyl}-6-(4-fluorophenyl)thieno[2,3-d]pyrimidin-4-yl]oxy}-3-[2-(pyrazin-2-ylmethoxy)phenyl]propanoate] belongs 41.8% @ 10 uM.

Staying with this assay, now noted: partial inhibitors; @ 1000 uM test compound.
As to `CCOC(=O)[C@@H](Cc1ccccc1OC)Oc1ncnc2sc(-c3ccsc3)c(-c3ccc(O)c(Cl)c3C)c12` [Example 636, ethyl (2R)-2-{[(5Sa)-5-(3-chloro-4-hydroxy-2-methylphenyl)-6-(thiophen-3-yl)thieno[2,3-d]pyrimidin-4-yl]oxy}-3-(2-methoxyphenyl)propanoate], the “percentage fluorescence polarisation inhibition, Mcl-1 FP” value turned out to be 71.7 % @ 1000 uM.

Still in this assay, the particulars now being: test compound at 10 uM; Method 1, or Method 2 where the value is underlined (underlining not visible).
As to `CCOC(=O)[C@@H](Cc1ccccc1OCc1ccnc(-c2ccccc2OC)n1)Oc1ncnc2sc(-c3ccc(F)cc3)c(-c3ccc(OCCN4CCN(C)CC4)c(Cl)c3C)c12` [Example 830, ethyl (2R)-2-{[(5Ra)-5-{3-chloro-2-methyl-4-[2-(4-methylpiperazin-1-yl)ethoxy]phenyl}-6-(4-fluorophenyl)thieno[2,3-d]pyrimidin-4-yl]oxy}-3-(2-{[2-(2-methoxyphenyl)pyrimidin-4-yl]methoxy}phenyl)propanoate], the “percentage fluorescence polarisation inhibition (Mcl-1 FP), partial inhibitors” value is given as −11.9% @ 10 uM. Same read-out and setting: under `CCOC(=O)[C@@H](Cc1ccccc1OCc1ccnc(-c2ccccc2CO)n1)Oc1ncnc2sc(-c3ccc(F)cc3)c(-c3ccc(OCCN(C)C)c(Cl)c3C)c12` [Example 857, ethyl (2R)-2-{[(5Sa)-5-{3-chloro-4-[2-(dimethylamino)ethoxy]-2-methylphenyl}-6-(4-fluorophenyl)thieno[2,3-d]pyrimidin-4-yl]oxy}-3-[2-({2-[2-(hydroxymethyl)phenyl]pyrimidin-4-yl}methoxy)phenyl]propanoate] stands 77.85% @ 10 uM.
